Among the data in patent publication US20050250822A1, “Substituted benzanilide compound and noxious organism controlling agent” (priority 2002, published 2005) are pest or weed control values, retold here.

Like-named read-outs stand apart in the source and are kept apart here.

The test system of assay [1] is Common cutworms (Spodoptera litura) with second instar larvae. Put plainly: Insecticidal test against common cutworm (leaf dip). The assay is classed as in vivo. Conditions: foliar, 144 h, read-out: insecticidal rate (rate of dead insects). On the procedure: Insecticidal Test Against Common Cutworm
(§1) A 10% emulsifiable concentrate (depending on the compounds, 25% wettable powder was applied for the test) of the compound of the present invention was diluted with water containing a spreading agent to prepare a chemical solution with a concentration of 100 ppm. To the chemical solution was dipped leaves of Chinese olive for about 10 seconds, and after air-drying, they were placed in a laboratory dish, then, 10 Common cutworms (Spodoptera litura) with second instar larvae per the dish were released therein, and the dish was covered with a lid having holes and contained at a thermostat chamber at 25° C. A number of dead insect(s) after 6 days was counted and a rate of dead insects was calculated by the following calculation formula. Incidentally, the test was carried out with two districts. Rate of dead insects (%)=(Number of dead insects/Number of released insects)×100

The test system of assay [2] is diamondback moths (Plutella xylostella) with second instar larvae. Briefly: Insecticidal test against diamondback moth (leaf dip). Conditions: foliar, 144 h, read-out: insecticidal rate (rate of dead insects). Type of assay: in vivo. As for the experimental part:
Insecticidal Test Against Diamondback Moth
as §1, with “diamondback moths (Plutella xylostella)” for “Common cutworms (Spodoptera litura)”, “in” for “by”, “same manner as in Test Example 1.” for “following calculation formula.”, “districts.” for “districts. Rate of dead insects (%)=(Number of dead insects/Number of released insects)×100”

Setting [3] is: chemical solution 100 ppm, leaf dip, 25° C., dead insects counted after 6 days.

As for `CC1=NOC(c2ccc(NC(=O)c3cccc(I)c3C(=O)NC(C)C)c(C)c2)(C(F)(F)F)C1` (stereo not drawn) [1-006, 3-Iodo-N^2-isopropyl-N^1-[2-methyl-4-(3-methyl-5-trifluoromethyl-4,5-dihydroisoxazol-5-yl)phenyl]phthalic diamide], the pest or weed control at 100 ppm in assay [1] (setting [3]) and in assay [2] (setting [3]) was ≥ 80% in each case. In the case of `CC1=NOC(c2ccc(NC(=O)c3c(I)cccc3C(=O)NC(C)C)c(C)c2)(C(F)(F)F)C1` (stereo not drawn) [1-007, 6-iodo-N^2-isopropyl-N^1-[2-methyl-4-(3-methyl-5-trifluoromethyl-4,5-dihydroisoxazol-5-yl)phenyl]phthalic diamide], the pest or weed control at 100 ppm in assay [2] (setting [3]) is ≥ 80%. On the same count and under the same terms, as for `Cc1cc(C2(C(F)(F)F)CC(C(F)(F)F)=NO2)ccc1NC(=O)c1cccc(I)c1C(=O)NC(C)C` (stereo not drawn) [1-013, 3-Iodo-N^2-isopropyl-N^1-[2-methyl-4-(3,5-bistrifluoromethyl-4,5-dihydroisoxazol-5-yl)phenyl]phthalic diamide], the figure is ≥ 80%. The same measure, in the same setting: as for `CCOC(=O)C1=NOC(c2ccc(NC(=O)c3c(I)cccc3C(=O)NC(C)C)c(C)c2)(C(F)(F)F)C1` (stereo not drawn) [1-020, N^1-[4-(3-ethoxycarbonyl-5-trifluoromethyl-4,5-dihydroisoxazol-5-yl)-2-methylphenyl]-6-iodo-N^2-isopropylphthalic diamide], the figure is ≥ 80%.

As for `Cc1cc(C2(C(F)(F)F)CC(n3cncn3)=NO2)ccc1NC(=O)c1cccc(I)c1C(=O)NC(C)C` (stereo not drawn) [1-032, 3-Iodo-N^2-isopropyl-N^1-[4-[3-(1,2,4-triazol-1-yl)-5-trifluoromethyl-4,5-dihydroisoxazol-5-yl]-2-methylphenyl]phthalic diamide], the pest or weed control at 100 ppm in assay [1] (setting [3]) and in assay [2] (setting [3]) was ≥ 80% throughout. With `Cc1cc(C2(C3CC3)CC(c3ccc(Cl)cc3)=NO2)ccc1NC(=O)c1cccc(I)c1C(=O)NC(C)C` (stereo not drawn) [2-013, N^1-[4-[3-(4-chlorophenyl)-5-cyclopropyl-4,5-dihydroisoxazol-5-yl]-2-methylphenyl]-3-iodo-N 2-isopropylphthalic diamide], the pest or weed control at 100 ppm in assay [1] (setting [3]) and in assay [2] (setting [3]) was ≥ 80% each time. On to `Cc1cc(C2(C(F)(F)F)CC(c3ccc(F)cc3)=NO2)ccc1NC(=O)c1cccc(I)c1C(=O)NC(C)C` (stereo not drawn) [2-016, N^1-[4-[3-(4-fluorophenyl)-5-trifluoromethyl-4,5-dihydroisoxazol-5-yl]-2-methylphenyl]-3-iodo-N^2-isopropylphthalic diamide], for which the pest or weed control at 100 ppm in assay [1] (setting [3]) and in assay [2] (setting [3]) was ≥ 80% each time.

With `Cc1cc(C2(C(F)(F)F)CC(c3ccc([S+](C)[O-])cc3)=NO2)ccc1NC(=O)c1cccc(I)c1C(=O)NC(C)C` (stereo not drawn) [2-037, 3-Iodo-N 2 isopropyl-N^1-[4-[3-(4-methylsulfinylphenyl)-5-trifluoromethyl-4,5-dihydroisoxazol-5-yl]-2-methylphenyl]phthalic diamide], the pest or weed control at 100 ppm in assay [1] (setting [3]) and in assay [2] (setting [3]) was ≥ 80% each time.

For the molecule `Cc1cc(C2(C(F)(F)F)CC(c3ccc(C#N)cc3)=NO2)ccc1NC(=O)c1cccc(I)c1C(=O)NC(C)C` (stereo not drawn) [2-046, N^1-[4-[3-(4-cyanophenyl)-5-trifluoromethyl-4,5-dihydroisoxazol-5-yl]-2-methylphenyl]-3-iodo-N^2-isopropylphthalic diamide], the pest or weed control at 100 ppm in assay [1] (setting [3]) and in assay [2] (setting [3]) was ≥ 80% in each case. As for `Cc1cc(C2(C(F)(F)F)CC(c3ccc(C(N)=O)cc3)=NO2)ccc1NC(=O)c1cccc(I)c1C(=O)NC(C)C` (stereo not drawn) [2-048, N^1-[4-[3-(4-carbamoylphenyl)-5-trifluoromethyl-4,5-dihydroisoxazol-5-yl]-2-methylphenyl]-3-iodo-N^2-isopropylphthalic diamide], the pest or weed control at 100 ppm in assay [1] (setting [3]) and in assay [2] (setting [3]) was ≥ 80% each time.

On to `Cc1cc(C2(C(F)(F)C(F)(F)C(F)(F)F)CC(c3ccc(Cl)cc3)=NO2)ccc1NC(=O)c1cccc(I)c1C(=O)NC(C)C` (stereo not drawn) [2-059, N^1-[4-[3-(4-chlorophenyl)-5-heptafluoropropyl-4,5-dihydroisoxazol-5-yl]-2-methylphenyl]-3-iodo-N^2-isopropylphthalic diamide], for which the pest or weed control at 100 ppm in assay [1] and in assay [2] was ≥ 80% in each case. As for `CSCC(C)NC(=O)c1c(I)cccc1C(=O)Nc1ccc(C2(C(F)(F)F)CC(c3ccc(Cl)cc3)=NO2)cc1C` (stereo not drawn) [2-095, N^1-[4-[3-(4-chlorophenyl)-5-trifluoromethyl-4,5-dihydroisoxazol-5-yl]-2-methylphenyl]-3-iodo-N^2-(1-methyl-2-methylthioethyl)phthalic diamide], the pest or weed control at 100 ppm in assay [1] (setting [3]) and in assay [2] (setting [3]) was ≥ 80% throughout.

`CCN(CC)C(=O)c1c(I)cccc1C(=O)Nc1ccc(C2(C(F)(F)F)CC(c3ccc(S(C)(=O)=O)cc3)=NO2)cc1C` (stereo not drawn) [2-162, N^2, N^2-diethyl-3-iodo-N^1-[4-[3-(4-methylsulfonylphenyl)-5-trifluoromethyl-4,5-dihydroisoxazol-5-yl]-2-methylphenyl]phthalic diamide]: in assay [2] (setting [3]), the pest or weed control at 100 ppm was ≥ 80%. `Cc1cc(C2(C(F)(F)F)CC(c3ccc(F)cc3)=NO2)ccc1NC(=O)c1cccc([N+](=O)[O-])c1C(=O)NC(C)C` (stereo not drawn) [2-167, N^1-[4-[3-(4-fluorophenyl)-5-trifluoromethyl-4,5-dihydroisoxazol-5-yl]-2-methylphenyl]-3-nitro-N^2-isopropylphthalic diamide]: the pest or weed control at 100 ppm in assay [1] (setting [3]) and in assay [2] (setting [3]) was ≥ 80% in each case. As for `Cc1cc(C2(C(F)(F)F)CC(c3ccc(F)cc3)=NO2)ccc1NC(=O)c1cccc(N)c1C(=O)NC(C)C` (stereo not drawn) [2-170, 3-Amino-N^1-[4-[3-(4-fluorophenyl)-5-trifluoromethyl-4,5-dihydroisoxazol-5-yl]-2-methylphenyl]-N^2-isopropylphthalic diamide], the pest or weed control at 100 ppm in assay [1] (setting [3]) and in assay [2] (setting [3]) was ≥ 80% in each case. Regarding `CC1=NOC(c2ccc(Cl)cc2)(c2ccc(NC(=O)c3cccc(I)c3C(=O)NC(C)C)c(C)c2)C1` (stereo not drawn) [3-006, N^1-[4-[5-(4-chlorophenyl)-3-methyl-4,5-dihydroisoxazol-5-yl]-2-methylphenyl]-3-iodo-N^2-isopropylphthalic diamide], the pest or weed control at 100 ppm in assay [1] (setting [3]) and in assay [2] (setting [3]) was ≥ 80% throughout.

Consider `Cc1cc(C2(C(F)(F)F)CC(C#N)=C(c3ccccc3)O2)ccc1NC(=O)c1cccc(I)c1C(=O)NC(C)C` (stereo not drawn) [4-01, N^1-[4-(3-cyano-2-phenyl-5-trifluoromethyl-4,5-dihydrofuran-5-yl)-2-methylphenyl]-3-iodo-N 2-isopropylphthalic diamide], for which, in assay [2] (setting [3]), the pest or weed control at 100 ppm is ≥ 80%. As to `Cc1cc(C2(C(F)(F)F)CN=C(c3ccc(Cl)cc3)S2)ccc1NC(=O)c1cccc(I)c1C(=O)NC(C)C` (stereo not drawn) [4-04, N^1-[4-[2-(4-chlorophenyl)-5-trifluoromethyl-4,5-dihydrothiazol-5-yl]-2-methylphenyl]-3-iodo-N^2-isopropylphthalic diamide], the pest or weed control at 100 ppm in assay [1] (setting [3]) and in assay [2] (setting [3]) was ≥ 80% each time.

On to `Cc1cc(C2(C(F)(F)F)ON=C(c3ccc(F)cc3)O2)ccc1NC(=O)c1cccc(I)c1C(=O)NC(C)C` (stereo not drawn) [4-05, N^1-[4-[3-(4-fluorophenyl)-5-trifluoromethyl-1,4,2-dioxazolin-5-yl]-2-methylphenyl]-3-iodo-N 2-isopropylphthalic diamide], for which the pest or weed control at 100 ppm in assay [1] (setting [3]) and in assay [2] (setting [3]) was ≥ 80% throughout. Turning to `CC1=NN(c2ccc(Cl)cc2)C(c2ccc(NC(=O)c3cccc(I)c3C(=O)NC(C)C)c(C)c2)C1` (stereo not drawn) [6-02, N^1-[4-[1-(4-chlorophenyl)-3-methyl-4,5-dihydropyrazol-5-yl]-2-methylphenyl]-3-iodo-N^2-isopropylphthalic diamide], in assay [2] (setting [3]), the pest or weed control at 100 ppm is ≥ 80%. As to `Cc1cc(C2(C(F)(F)F)CC(c3ccc(Cl)cc3)=NN2C)ccc1NC(=O)c1cccc(I)c1C(=O)NC(C)C` (stereo not drawn) [6-04, N^1-[4-[3-(4-chlorophenyl)-1-methyl-5-trifluoromethyl-4,5-dihydropyrazol-5-yl]-2-methylphenyl]-3-iodo-N^2-isopropylphthalic diamide], the pest or weed control at 100 ppm in assay [1] (setting [3]) and in assay [2] (setting [3]) was ≥ 80% in each case. In the case of `Cc1cc(C2(C(F)(F)F)OCC(c3ccc(Cl)cc3)O2)ccc1NC(=O)c1cccc(I)c1C(=O)NC(C)C` (stereo not drawn) [7-03, N^1-[4-[4-(4-chlorophenyl)-2-trifluoromethyl-1,3-dioxolan-2-yl]-2-methylphenyl]-3-iodo-N^2-isopropylphthalic diamide], the pest or weed control at 100 ppm in assay [1] (setting [3]) and in assay [2] (setting [3]) was ≥ 80% in each case.

As for `Cc1cc(C2(C(F)(F)F)OCC(c3ccc(Cl)cc3)S2)ccc1NC(=O)c1cccc(I)c1C(=O)NC(C)C` (stereo not drawn) [7-09, N^1-[4-[4-(4-chlorophenyl)-2-trifluoromethyl-1,3-oxathiolan-2-yl]-2-methylphenyl]-3-iodo-N^2-isopropylphthalic diamide], the pest or weed control at 100 ppm in assay [2] (setting [3]) is ≥ 80%.
